Results as given in the Kinase Knowledgebase extract (Sharma et al. 2016).

target: CDK2 (human) (UniProt P24941); assay: Enzyme Assay

IC50, < 100 µM:
Cc1c(N[C@H]2CC[C@H](N)CC2)nc2ccnn2c1Nc1ccc(OCCCl)cc1
Cc1c(N[C@H]2CC[C@H](N)CC2)nc2ccnn2c1Nc1ccc(-c2cccc(F)c2)cc1
CCOc1ccc(Nc2c(C)c(N[C@H]3CC[C@H](N)CC3)nc3c(C(=O)O)cnn23)cc1
CCOc1ccc(Nc2c(C)c(N[C@H]3CCN(Cc4ccccc4)C3)nc3ccnn23)cc1
Cc1c(N[C@H]2CC[C@H](N)CC2)nc2ccnn2c1Nc1ccc(C(=O)NC2CCCC2)cc1
CC1=[SH]c2cc(Nc3c(C)c(N[C@H]4CC[C@H](N)CC4)nc4ccnn34)ccc2N1
Cc1c(N[C@H]2CC[C@H](N)CC2)nc2ccnn2c1Nc1ccc(-c2cc3ccccc3[nH]2)cc1
CCc1c(N[C@H]2CC[C@H](N)CC2)nc2ccnn2c1Nc1cccc(C)c1
CCOc1ccc(Nc2c(C)c(N[C@H]3CC[C@H](N)CC3)nc3c(C(=O)Nc4ccncc4)cnn23)cc1
Cc1ccc(-c2ccc(Nc3c(C)c(N[C@H]4CC[C@H](N)CC4)nc4ccnn34)cc2)cc1
Cc1c(N[C@H]2CC[C@H](N)CC2)nc2ccnn2c1Nc1ccc(-c2ccc(N)cc2)cc1
CC(C)c1c(N[C@H]2CC[C@H](N)CC2)nc2ccnn2c1Nc1ccc(F)c(Cl)c1
CCOc1ccc(Nc2c(C)c(N[C@H]3CC[C@H](N)CC3)nc3c(C4CC4)cnn23)cc1
Cc1c(N[C@H]2CC[C@H](N)CC2)nc2ccnn2c1Nc1ccc(-c2ccc(C#N)cc2)cc1
CCOc1ccc(Nc2c(C)c(NC3CCCNC3)nc3c(C#N)cnn23)cc1 (stereo not given)
Cc1c(N[C@H]2CC[C@H](N)CC2)nc2ccnn2c1Nc1ccc(OC(C)C)cc1
Cc1c(N[C@H]2CC[C@H](N)CC2)nc2ccnn2c1Nc1ccc(-c2ccsc2C=O)cc1
CCOc1ccc(Nc2c(C)c(N[C@@H]3CCN(Cc4ccccc4)C3)nc3ccnn23)cc1
Cc1c(N[C@H]2CC[C@H](N)CC2)nc2ccnn2c1Nc1cccc(O)c1
CCOc1ccc(Nc2c(C)c(N[C@H]3CC[C@H](N)CC3)nc3c(S(C)(=O)=O)cnn23)cc1
Cc1c(N[C@H]2CC[C@H](N)CC2)nc2ccnn2c1Nc1ccc(-c2ccc(CO)cc2)cc1
CCOc1ccc(Nc2c(C)c(N[C@H]3CC[C@H](N)CC3)nc3c(C(=O)Nc4cc[nH]n4)cnn23)cc1
CCc1c(N[C@H]2CC[C@H](N)CC2)nc2ccnn2c1Nc1ccc(Br)cc1
Cc1ccc(Nc2c(C)c(NC3CCCNC3)nc3ccnn23)cc1C (stereo not given)
Cc1c(N[C@H]2CC[C@H](N)CC2)nc2ccnn2c1Nc1ccc2[nH]ccc2c1
Cc1c(N[C@H]2CC[C@H](N)CC2)nc2ccnn2c1Nc1cccc(OC2CCCC2)c1
COc1cccc(Nc2c(C)c(N[C@H]3CC[C@H](N)CC3)nc3ccnn23)c1
Cc1c(N[C@H]2CC[C@H](N)CC2)nc2ccnn2c1Nc1cccc(Br)c1
Cc1c(N[C@H]2CC[C@H](N)CC2)nc2ccnn2c1Nc1ccc(OCc2ccc(Cl)cc2)cc1
CCOC(=O)c1cccc(Nc2c(CC)c(N[C@H]3CC[C@H](N)CC3)nc3ccnn23)c1
COc1cccc(-c2ccc(Nc3c(C)c(N[C@H]4CC[C@H](N)CC4)nc4ccnn34)cc2)c1
Cc1c(N[C@H]2CC[C@H](N)CC2)nc2ccnn2c1Nc1ccc(OCCN2CCOCC2)cc1
N[C@H]1CC[C@H](Nc2cc(Nc3ccc(F)c(Cl)c3)n3ncc(Br)c3n2)CC1
CCc1c(N[C@H]2CC[C@H](N)CC2)nc2ccnn2c1Nc1cccc(Cl)c1
Cc1ccccc1COc1cccc(Nc2c(C)c(N[C@H]3CC[C@H](N)CC3)nc3ccnn23)c1
CCOC(=O)c1cccc(Nc2c(C)c(N[C@H]3CC[C@H](N)CC3)nc3ccnn23)c1
CCOc1ccc(Nc2c(C)c(N[C@H]3CC[C@H](N)CC3)nc3c(C(=O)Nc4ncc[nH]4)cnn23)cc1
Cc1c(N[C@H]2CC[C@H](N)CC2)nc2ccnn2c1Nc1ccc(-c2ccsc2)cc1
Cc1c(N[C@H]2CC[C@H](N)CC2)nc2ccnn2c1Nc1cccc(CO)c1
CCc1c(N[C@H]2CC[C@H](N)CC2)nc2ccnn2c1Nc1ccccc1Cl
Cc1c(N[C@H]2CC[C@H](N)CC2)nc2ccnn2c1Nc1ccc(OC2CCOCC2)cc1
Cc1c(N[C@H]2CC[C@H](N)CC2)nc2ccnn2c1Nc1cccc(OCc2cccnc2)c1
Cc1c(N[C@H]2CC[C@H](N)CC2)nc2c(C#N)cnn2c1Nc1ccc(F)c(Cl)c1
Cc1cc2cc(Nc3c(C)c(N[C@H]4CC[C@H](N)CC4)nc4ccnn34)ccc2[nH]1
CCOc1ccc(Nc2c(C)c(N(CC)C3CCCNC3)nc3ccnn23)cc1 (stereo not given)
CCc1c(N[C@H]2CC[C@H](N)CC2)nc2ccnn2c1Nc1cccc(Oc2ccccc2)c1
CCOc1ccc(Nc2c(C)c(N[C@H]3CCNC3)nc3ccnn23)cc1
Cc1csc(-c2ccc(Nc3c(C)c(N[C@H]4CC[C@H](N)CC4)nc4ccnn34)cc2)c1
Cc1c(N[C@H]2CC[C@H](N)CC2)nc2ccnn2c1Nc1cccc2[nH]ccc12
CCOc1cccc(Nc2c(C)c(N[C@H]3CC[C@H](N)CC3)nc3ccnn23)c1
Cc1c(N[C@H]2CC[C@H](N)CC2)nc2ccnn2c1Nc1ccc(N2CCCCC2)cc1
Cc1cscc1-c1ccc(Nc2c(C)c(N[C@H]3CC[C@H](N)CC3)nc3ccnn23)cc1
N[C@H]1CC[C@H](Nc2cc(NCc3cccc(Cl)c3)n3ncc(I)c3n2)CC1
CCc1c(N[C@H]2CC[C@H](N)CC2)nc2ccnn2c1Nc1ccc(OC(F)(F)F)cc1
CCOc1ccccc1Nc1c(C)c(N[C@H]2CC[C@H](N)CC2)nc2ccnn12
CCc1c(N[C@H]2CC[C@H](N)CC2)nc2ccnn2c1NCc1ccccc1Cl
CCOc1ccc(Nc2c(C)c(NC3CCCNC3)nc3c(C(C)C)cnn23)cc1 (stereo not given)
CC(=O)c1ccc(-c2ccc(Nc3c(C)c(N[C@H]4CCCNC4)nc4ccnn34)cc2)s1
Cc1c(N[C@H]2CC[C@H](N)CC2)nc2ccnn2c1Nc1ccccc1F
C=CCNc1c(CC)c(N[C@H]2CC[C@H](N)CC2)nc2ccnn12
Cc1c(N[C@H]2CC[C@H](N)CC2)nc2c(C(=O)C(F)(F)F)cnn2c1Nc1ccc(I)cc1
C=CCNc1c(-c2ccccc2)c(N[C@H]2CC[C@H](N)CC2)nc2ccnn12
COc1ccc(Nc2c(CCCO)c(N[C@H]3CC[C@H](N)CC3)nc3ccnn23)cc1
N[C@H]1CC[C@H](Nc2cc(Nc3ccc(F)c(Cl)c3)n3ncc(I)c3n2)CC1
Cc1nn2c(Nc3ccc(F)c(Cl)c3)cc(N[C@H]3CC[C@H](N)CC3)nc2c1Br
Cc1c(N[C@H]2CC[C@H](N)CC2)nc2ccnn2c1Nc1ccc(F)c(Cl)c1
CCc1c(N[C@H]2CC[C@H](N)CC2)nc2ccnn2c1Nc1ccc(Oc2ccc(C)cc2)cc1
Cc1c(N[C@H]2CC[C@H](N)CC2)nc2ccnn2c1Nc1ccc(I)cc1
CCCc1c(N[C@H]2CC[C@H](N)CC2)nc2ccnn2c1Nc1ccc(F)c(Cl)c1
Cc1c(N[C@H]2CC[C@H](N)CC2)nc2ccnn2c1Nc1ccc(OCC2CCCC2)cc1
Cc1c(N[C@H]2CC[C@H](N)CC2)nc2ccnn2c1Nc1ccc(OCc2ccccn2)cc1
CCc1c(N[C@H]2CC[C@H](N)CC2)nc2ccnn2c1Nc1ccc(I)cc1
CCOc1ccc(Nc2c(C)c(NC3CCCNC3)nc3c(C4CCCCC4)cnn23)cc1 (stereo not given)
CCOC(=O)c1ccc(Nc2c(CC)c(N[C@H]3CC[C@H](N)CC3)nc3ccnn23)cc1
Cc1c(N[C@H]2CC[C@H](N)CC2)nc2ccnn2c1Nc1ccc(OCC2CCCO2)cc1 (stereo not given in full)
Cc1c(N[C@H]2CC[C@H](N)CC2)nc2ccnn2c1Nc1ccc(-c2cccc(OC(F)(F)F)c2)cc1
Cc1c(N[C@H]2CC[C@H](N)CC2)nc2ccnn2c1Nc1ccc(OC2CCN(C)CC2)cc1
Cc1c(N[C@H]2CC[C@H](N)CC2)nc2ccnn2c1Nc1ccc(-c2cc3ccccc3o2)cc1
Cc1c(N[C@H]2CC[C@H](N)CC2)nc2ccnn2c1Nc1ccc(OCCN2CCCCC2)cc1
Cc1c(N[C@H]2CC[C@H](N)CC2)nc2ccnn2c1Nc1ccc(OCc2cccc(N)c2)cc1
Cc1c(N[C@H]2CC[C@H](N)CC2)nc2ccnn2c1Nc1ccc(-c2ccc(O)cc2)cc1
Cc1c(N[C@H]2CC[C@H](N)CC2)nc2ccnn2c1Nc1ccc(OCc2ccccc2Cl)cc1
CCOc1ccc(-c2ccc(Nc3c(C)c(N[C@H]4CC[C@H](N)CC4)nc4ccnn34)cc2)cc1
CNC(=O)c1ccc(Nc2c(C)c(N[C@H]3CC[C@H](N)CC3)nc3ccnn23)cc1
Cc1c(N[C@H]2CC[C@H](N)CC2)nc2ccnn2c1Nc1ccc(C(F)(F)F)cc1
